Molecular target: Pycnoporus cinnabarinus ss3 cellobiose dehydrogenase, recombinant (rCDH, C-terminal (His)6 tag, expressed in Pichia pastoris; GenBank HQ825322) (Trametes cinnabarina, UniProt F1DFN2)
Experiment: Kinetic parameters of purified rCDH for electron acceptors (cellobiose oxidation, 30° C., pH 4.5)
Assay type: biochemical
Experimental: To measure enzyme activities in the P. cinnabarinus culture supernatant, each aliquot was centrifuged for 5 min at 3500 rpm and filtered through a 0.45 μm membrane (MILLIPORE, Bedford, Mass., USA). CDH activities were determined by monitoring the reduction of 0.2 mM 2,6-dichlorophenol indophenol (DCPIP) in 100 mM sodium acetate buffer (pH 5) containing 2 mM cellobiose and 4 mM of sodium fluoride (sodium fluoride was used as a laccase inhibitor). The decrease in absorption at 520 nm (ε=6800 M^−1·cm^−1) was monitored at 30° C. for 1 min. Alternatively, CDH activity was determined by monitoring the reduction of 50 μM cytochrome c (cyt c) in 100 mM sodium-acetate buffer (pH 5) containing 2 mM cellobiose. The decrease in absorption at 550 nm (ε=33,700 M^−1·cm^−1) was monitored at 30° C. for 1 min. Glucose oxidase was measured by using the D-gluconic acid/D-glucono-δ-lactone assay (MEGAZYME). Laccase activity was determined quantitatively by monitoring the oxidation of 5 mM ABTS (2,2′-azino-bis(3-ethylbenzthiazoline-6-sulfonic acid)) at 420 nm (extinction coefficient […] cm.^−1) in the presence of 50 mM NaK tartrate, pH 4.0. Lignin peroxidase activity was determined spectrophotometrically at 30° C. by the method of Tien and Kirk (1988, Methods Enzymol., vol. 161, pp: 238-249). Manganese peroxidase activity was determined spectrophotometrically at 30° C. by the method of Paszczynski et al. (1985, FEMS Microbiol. Lett. 29:37-41) using H2O2 and vanillylacetone as substrate. Enzyme activity was expressed in international units (IU). One unit of activity is defined as the quantity of enzyme that transforms 1 μmol of substrate in one minute.
The kinetic parameters (Vmax and Km) were determined for cellobiose oxidation measured at 30° C. in 50 mM citrate phosphate buffer pH 4.5 using DCPIP or cytochrome c. The concentration of cellobiose ranged from 10 to 700 μM with both electron acceptors (DCPIP and cytochrome c). Triplicates were run to ensure reliable kinetic parameter determination.
Graphpad prism v.4 (Graphpad Software) was used for the nonlinear regression calculation and kinetic parameter determination.

[1] = electron acceptor DCPIP, cellobiose as electron donor, 30° C., pH 4.5, apparent

Sequence of Pycnoporus cinnabarinus ss3 cellobiose dehydrogenase, recombinant (rCDH, C-terminal (His)6 tag, expressed in Pichia pastoris; GenBank HQ825322) (F1DFN2 1-750): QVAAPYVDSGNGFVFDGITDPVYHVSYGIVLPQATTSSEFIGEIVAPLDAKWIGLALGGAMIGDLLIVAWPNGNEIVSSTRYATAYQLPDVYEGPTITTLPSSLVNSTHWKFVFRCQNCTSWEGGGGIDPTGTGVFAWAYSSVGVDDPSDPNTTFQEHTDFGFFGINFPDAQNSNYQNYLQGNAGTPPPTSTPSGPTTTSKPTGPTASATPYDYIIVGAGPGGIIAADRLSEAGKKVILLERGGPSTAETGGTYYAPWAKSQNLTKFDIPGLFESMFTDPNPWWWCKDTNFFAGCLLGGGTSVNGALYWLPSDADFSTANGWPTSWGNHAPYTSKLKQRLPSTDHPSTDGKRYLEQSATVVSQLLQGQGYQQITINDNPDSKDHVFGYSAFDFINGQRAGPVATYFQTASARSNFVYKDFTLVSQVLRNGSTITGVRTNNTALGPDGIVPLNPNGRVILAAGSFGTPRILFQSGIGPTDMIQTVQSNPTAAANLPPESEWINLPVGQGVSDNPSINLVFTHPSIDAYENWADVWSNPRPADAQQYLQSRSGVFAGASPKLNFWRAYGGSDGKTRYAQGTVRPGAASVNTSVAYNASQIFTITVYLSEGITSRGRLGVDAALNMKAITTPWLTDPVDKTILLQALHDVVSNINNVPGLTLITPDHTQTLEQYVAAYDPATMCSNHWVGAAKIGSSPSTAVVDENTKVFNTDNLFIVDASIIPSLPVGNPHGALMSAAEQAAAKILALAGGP

## O=C1C(Cl)=CC(=Nc2ccc(O)cc2)C=C1Cl [DCPIP, 2,6-dichlorophenol indophenol]
DCPIP, on cellobiose oxidation
  Vmax: 22.2 U·mg^−1
[1]
  Vmax: 22.2 µmol/min/mg
  kcat: 40.8 s⁻¹
  kcat/KM: 1.148e+06 M⁻¹ s⁻¹
